{"source": "patent EP4800013A1", "about": "“PARG INHIBITOR” (Shanghai Qilu Pharmaceutical Research and Development …, priority 2023, dated 2025)", "test": "Pharmacokinetic evaluation in CD-1 mice (IV and PO)", "type": "in vivo", "settings": "male, mouse, plasma; for Vd: read-out: Vss", "procedure": "Using mice as test animals, the compounds of the present disclosure were administered via intravenous bolus and oral injection. Plasma samples were collected at specific time points. Compound concentrations in plasma were determined by LC-MS/MS, and PK parameters were calculated to characterize the pharmacokinetic behavior of the compounds of the present disclosure in plasma.\nCD-1 mice, male, supplied by Zhejiang Vital River Laboratory Animal Technology Co., Ltd.\nDosing regimen for CD-1 mice: Both the IV (intravenous) and PO (oral) experimental groups consisted of 3 mice. The IV group was administered at a dose of 1 mg/kg and a volume of 5 mL/kg. The PO group was administered at a dose of 30 mg/kg and a volume of 10 mL/kg. The dosing vehicle was 5% (v/v) DMSO/10% (v/v) Solutol/85% (v/v) saline.\nFollowing administration, 0.025 mL of blood was collected via venipuncture at the following time points: 0.0833 (IV), 0.25, 0.5, 1, 2, 4, 8, and 24 hours. Blood samples were collected into EDTA-K2 tubes and centrifuged at 4°C and 2000 g for 10 minutes to separate plasma, which was stored at -80°C.\nMouse plasma processing: • 1) 15 µL of plasma was mixed with 200 µL of acetonitrile for protein precipitation. The mixture was vortexed and centrifuged for 15 minutes. • 2) The supernatant after processing was diluted with water and analyzed by LC/MS/MS to determine the concentration of the test compound.\nPharmacokinetic parameters were calculated using WinNonlin 6.1. Specifically, Cmax represents maximum plasma concentration, CL represents clearance, Vss represents volume of distribution at steady state, T1/2 represents terminal elimination half-life, MRTInf represents mean residence time, AUC represents area under the plasma concentration-time curve, and F represents bioavailability. Table 18: Pharmacokinetic parameters of the compounds of the present disclosure in CD-1 mice", "data": [{"compound": "CCc1nc2n(-c3nnc(C(F)F)s3)c3cc(S(=O)(=O)NC4(C)CC4)cc(N4C[C@H](C)N[C@@H](C)C4)c3n2n1", "note": "[Compound 065R]", "values": [{"measurement": "AUC", "setting": "IV, 1 mg/kg", "result": 0.555, "unit": "µM·h"}, {"measurement": "MRT inf", "setting": "IV, 1 mg/kg", "result": 2.3, "unit": "h"}, {"measurement": "clearance", "setting": "IV, 1 mg/kg", "result": 50, "unit": "mL/min/kg"}, {"measurement": "half-life", "setting": "IV, 1 mg/kg", "result": 2.2, "unit": "h"}, {"measurement": "Vd", "setting": "IV, 1 mg/kg", "result": 6.8, "unit": "L/kg"}, {"measurement": "AUC", "setting": "PO, 30 mg/kg", "result": 11.2, "unit": "µM·h"}, {"measurement": "Cmax", "setting": "PO, 30 mg/kg", "result": 1610, "unit": "nM"}, {"measurement": "MRT inf", "setting": "PO, 30 mg/kg", "result": 4.6, "unit": "h"}, {"measurement": "half-life", "setting": "PO, 30 mg/kg", "result": 2.4, "unit": "h"}]}, {"compound": "C[C@H]1CN(c2cc(S(=O)(=O)NC3(C)CC3)cc3c2n2nc(C(F)(F)F)nc2n3-c2nnc(C(F)F)s2)C[C@H](C)N1", "note": "[Compound 065W]", "values": [{"measurement": "AUC", "setting": "IV, 1 mg/kg", "result": 1.26, "unit": "µM·h"}, {"measurement": "MRT inf", "setting": "IV, 1 mg/kg", "result": 5.6, "unit": "h"}, {"measurement": "clearance", "setting": "IV, 1 mg/kg", "result": 22, "unit": "mL/min/kg"}, {"measurement": "half-life", "setting": "IV, 1 mg/kg", "result": 5.2, "unit": "h"}, {"measurement": "Vd", "setting": "IV, 1 mg/kg", "result": 7.2, "unit": "L/kg"}, {"measurement": "AUC", "setting": "PO, 30 mg/kg", "result": 18.3, "unit": "µM·h"}, {"measurement": "Cmax", "setting": "PO, 30 mg/kg", "result": 1980, "unit": "nM"}, {"measurement": "MRT inf", "setting": "PO, 30 mg/kg", "result": 5.7, "unit": "h"}, {"measurement": "half-life", "setting": "PO, 30 mg/kg", "result": 3.3, "unit": "h"}]}]}
